We go through 17 compounds from ChEMBL document CHEMBL2346656, “Anti-hepatitis B virus lignans from the root of Streblus asper” (Bioorg Med Chem Lett, 2013).

Data set [1] in a line: Cytotoxicity against human HepG2(2.2.15) cells after 12 days by MTT assay. Type of data set: cell-based. On the technique in general: Tetrazolium dyes change colour on reduction, which living cells bring about.
Data set [2] relates to Hepatitis B virus. Description: Antiviral activity against Hepatitis B virus infected in human HepG2.2.15 cells assessed as inhibition of HBV DNA replication after 72 hrs by PCR analysis. The class given is functional, organism-based. The settings on record: HepG2 2.2.15, 72 h.
The subject of data set [3] is Hepatitis B virus. As to the kind of experiment: Antiviral activity against Hepatitis B virus infected in human HepG2.2.15 cells assessed as inhibition of HBeAg secretion after 12 days by ELISA. The class given is functional, organism-based. To be noted: HepG2 2.2.15, 288 h. (An ELISA detects its analyte on a solid surface through an enzyme-linked reagent.)
Data set [4] deals with Hepatitis B virus. Description: Antiviral activity against Hepatitis B virus infected in human HepG2.2.15 cells assessed as inhibition of HBsAg secretion after 12 days by ELISA. Type of data set: functional, organism-based. The settings on record: HepG2 2.2.15, 288 h.
The nature of data set [5]: Selectivity index, ratio of CC50 for human HepG2(2.2.15) cells to IC50 for Hepatitis B virus infected human HepG2.2.15 cells by DNA replication assay. The class given is functional.
Data set [6] is described as follows: Selectivity index, ratio of CC50 for human HepG2(2.2.15) cells to IC50 for Hepatitis B virus infected in human HepG2.2.15 cells assessed as HBeAg secretion inhibition assay. The class given is functional.
Data set [7] in a line: Selectivity index, ratio of CC50 for human HepG2(2.2.15) cells to IC50 for Hepatitis B virus infected in human HepG2.2.15 cells by HBsAg secretion inhibition assay. The class given is functional.

One may read the CC50 as the concentration at which the toxic effect on the cells reaches its halfway point. A high value points to lower toxicity to the cells. By IC50 is commonly meant the point on the concentration scale where inhibition reaches its midpoint.

`C=CCc1ccc(O[C@@H]2O[C@H](CO)[C@@H](O)[C@H](O)[C@H]2O)c(-c2cc(C[C@@H](O)CO)ccc2O)c1` came in with a half-maximal cytotoxic concentration (CC50) at 288 h in data set [1] of 190 µM. Further, the half-inhibitory concentration (IC50) in the data set with Hepatitis B virus [2], in the data set on Hepatitis B virus [3] and with Hepatitis B virus [4] was above 1000 µM in each case.

Regarding `COc1cc(C2c3cc(O)c(OC)cc3C[C@@H](CO)[C@@H]2CO[C@@H]2OC[C@@H](O)[C@H](O)[C@H]2O)ccc1O` (stereo partly specified), the entries for the “Ratio CC50/IC50” value in data set [5], in data set [6] and in data set [7] were 11.9, 7.87 and 30.15, respectively. In addition, the CC50 at 288 h in data set [1] turned out to be 210 µM. Further, the IC50 in the data set on Hepatitis B virus [2] came to 17.7 µM; in the data set with Hepatitis B virus [3], 26.7 µM; in the data set with Hepatitis B virus [4], 6.98 µM.

As to `C=CCc1ccc2c(c1)-c1cc([C@@H](O)[C@H](C)O)ccc1Oc1ccc(CC=C)cc1-c1cc([C@@H](O)[C@H](C)O)ccc1O2` [(7'R,8'S,7'R,8'S)-ERYTHRO-STREBLUSLIGNANOL G], the “Ratio CC50/IC50” value came out at 13.12 in data set [5], 36.52 in data set [6] and 74.9 in data set [7]. Also, half-maximal cytotoxicity in data set [1] (CC50 at 288 h) was put at 118 µM. Further, the IC50 in the data set on Hepatitis B virus [2] was determined as 9.02 µM; in the data set on Hepatitis B virus [3], 3.24 µM; in the data set on Hepatitis B virus [4], 1.58 µM.

`COc1cc([C@H]2Oc3c(OC)cc(CCCO)cc3[C@@H]2CO)ccc1O` [DIHYDRODEHYDRODICONIFERY ALCOHOL] had a CC50 at 288 h in data set [1] of 180 µM. Also, the IC50 in the data set on Hepatitis B virus [2], in the data set on Hepatitis B virus [3] and with Hepatitis B virus [4] was above 1000 µM each time.

Compound `COc1cc([C@H]2Oc3c(OC)cc(/C=C/C(=O)O)cc3[C@@H]2CO)ccc1O` [GLYCOSMISIC ACID] came in with a CC50 at 288 h in data set [1] of 200 µM. Besides, the IC50 in the data set with Hepatitis B virus [2], in the data set with Hepatitis B virus [3] and in the data set with Hepatitis B virus [4] was above 1000 µM in each case.

Regarding `COc1cc([C@H]2c3cc(O)c(OC)cc3C[C@@H](CO)[C@@H]2CO)ccc1O` [ISOLARICIRESINOL], the entries for the “Ratio CC50/IC50” value in data set [5], in data set [6] and in data set [7] were 10.18, 8.82 and 35.28, respectively. Moreover, the CC50 at 288 h in data set [1] was found to be 129 µM. For the same compound, the values for the IC50 in the data set with Hepatitis B virus [2], in the data set on Hepatitis B virus [3] and in the data set with Hepatitis B virus [4] were 12.7 µM, 14.7 µM and 3.67 µM, respectively.

With `C=CCc1ccc(Oc2ccc(C=O)cc2O)cc1` [ISOMAGNALDEHYDE], the “Ratio CC50/IC50” value stood at 2.14 in data set [6] and 1.14 in data set [7]. Further, in data set [1], the midpoint of cytotoxicity, the CC50 at 288 h, lay at 186 µM. Also, the IC50 in the data set with Hepatitis B virus [2] was above 1000 µM; in the data set on Hepatitis B virus [3], 86.7 µM; in the data set with Hepatitis B virus [4] it was 162 µM.

Consider `C=CCc1ccc(Oc2cc(CC=C)ccc2O)cc1` [ISOMAGNOLOL], for which the figures for the “Ratio CC50/IC50” value in data set [5], in data set [6] and in data set [7] were 15.13, 22.14 and 18.91, respectively. In data set [1], this compound gave a CC50 at 288 h of 196 µM. Besides, the IC50 with Hepatitis B virus [2] came out at 12.9 µM; with Hepatitis B virus [3], 8.83 µM; in the data set with Hepatitis B virus [4] it was 10.3 µM.

In the case of `C=CCc1ccc(Oc2ccc(/C=C/C=O)cc2)c(O)c1` [ISOSTREBLUSLIGNANALDEHYDE], the “Ratio CC50/IC50” value in data set [5] was determined as 3.27; in data set [6], 19.11; in data set [7], 16.46. Besides, in data set [1], it took 200 µM to reach half-maximal cytotoxicity (CC50 at 288 h). For the same compound, the figures for the IC50 in the data set on Hepatitis B virus [2], in the data set with Hepatitis B virus [3] and in the data set on Hepatitis B virus [4] were 61.2 µM, 10.5 µM and 12.2 µM, respectively.

Turning to `Nc1ccn([C@@H]2CS[C@H](CO)O2)c(=O)n1` [LAMIVUDINE], the figures for the “Ratio CC50/IC50” value in data set [5], in data set [6] and in data set [7] were 3.93, 2.22 and 2.77, respectively. The same compound had a CC50 at 288 h in data set [1] of 391 µM. The IC50 turned out to be 99.5 µM with Hepatitis B virus [2], 176 µM in the data set on Hepatitis B virus [3] and 141 µM in the data set on Hepatitis B virus [4].

`C=CCc1ccc(O)c(-c2cc(C=O)ccc2O)c1` [MAGNALDEHYDE]: the “Ratio CC50/IC50” value in data set [6] was 4.83; in data set [7], 1.84. In addition, in data set [1], it took 200 µM to reach half-maximal cytotoxicity (CC50 at 288 h). In addition, the IC50 in the data set on Hepatitis B virus [2] is above 1000 µM; in the data set on Hepatitis B virus [3], 41.4 µM; in the data set with Hepatitis B virus [4], 109 µM.

With `C=CCc1ccc(O)c(-c2cc(C[C@@H](O)CO)ccc2O)c1` [MAGNOLIGNAN A], the midpoint of cytotoxicity in data set [1], the CC50 at 288 h, lay at 176 µM. For the same compound, the IC50 with Hepatitis B virus [2], in the data set with Hepatitis B virus [3] and with Hepatitis B virus [4] was above 1000 µM in each case.

Regarding `C=CCc1ccc(O)c(-c2cc(CC=C)ccc2O)c1` [MAGNOLOL], the “Ratio CC50/IC50” value in data set [5] amounted to 7.34; in data set [6] it was 16.94; in data set [7], 31.37. Also, in data set [1], the midpoint of cytotoxicity, the CC50 at 288 h, lay at 63.7 µM. In addition, the IC50 in the data set with Hepatitis B virus [2] turned out to be 8.67 µM; in the data set on Hepatitis B virus [3], 3.76 µM; in the data set on Hepatitis B virus [4] it was 2.03 µM.

In data set [1], `C=CCc1ccc(Oc2cc(CC=C)cc(O)c2O)cc1` [OBOVATOL] came in with a CC50 at 288 h of 180 µM.

For `C=CCc1ccc(O)c(-c2cc(O)ccc2O)c1` [RANDAIOL], the entries for the “Ratio CC50/IC50” value in data set [6] and in data set [7] were 6.63 and 1.23, respectively. Besides, the CC50 at 288 h in data set [1] was 201 µM. Besides, the IC50 with Hepatitis B virus [2] was above 1000 µM; in the data set with Hepatitis B virus [3], 30.2 µM; in the data set on Hepatitis B virus [4], 162 µM.

In the case of `C=CCc1ccc(O)c(-c2cc([C@H]3O[C@H](c4ccc(O)c(-c5cc(CC=C)ccc5O)c4)[C@@H](C)O[C@@H]3C)ccc2O)c1` [STREBLUSLIGNANOL F], the results for the “Ratio CC50/IC50” value in data set [5], in data set [6] and in data set [7] were 11.87, 3.17 and 2.41, respectively. This compound registered a CC50 at 288 h in data set [1] of 137 µM. Moreover, the results for the IC50 with Hepatitis B virus [2], with Hepatitis B virus [3] and with Hepatitis B virus [4] were 11.6 µM, 43.2 µM and 56.9 µM, respectively.

On to `C=CCc1ccc(O)c(-c2cc([C@@H](O)[C@@H](C)O)ccc2O)c1` [STREBLUSLIGNANOL], for which the “Ratio CC50/IC50” value in data set [6] is given as 1.36. Further, in data set [1], the CC50 at 288 h was 200 µM. For the same compound, the IC50 in the data set on Hepatitis B virus [2] was above 1000 µM; in the data set on Hepatitis B virus [3] it was 147 µM; in the data set with Hepatitis B virus [4], above 1000 µM.
